Measurements from ChEMBL document CHEMBL1150794, “Vibrio splendidus as the source of plasmid-mediated QnrS-like quinolone resistance determinants” (2007).
In brackets after ≈: the same amount, converted by molar mass.

Legend:
Format in all cases: functional
[1] = test system: Vibrio splendidus; assay: Antimicrobial activity against Vibrio splendidus 12B01 expressing plasmid-mediated QnrS-like quinolone resistance determinants
[2] = test system: Vibrio splendidus; assay: Antimicrobial activity against Vibrio splendidus LGP32 expressing plasmid-mediated QnrS-like quinolone resistance determinants
[3] = test system: Escherichia coli; assay: Antimicrobial activity against Escherichia coli TOP10
[4] = test system: Escherichia coli; assay: Antimicrobial activity against Escherichia coli TOP10 harbouring pVS1 expressing quinolone resistant Vibrio splendidus 12B01 QnrVS1 gene
[5] = test system: Escherichia coli; assay: Antimicrobial activity against Escherichia coli TOP10 harbouring pVS2 expressing quinolone resistant Vibrio splendidus LGP32 QnrVS2 gene
[6] = test system: Escherichia coli; assay: Antimicrobial activity against Escherichia coli TOP10 harbouring pS1 plasmid expressing quinolone resistant QnrS1 gene
[7] = test system: Escherichia coli; assay: Antimicrobial activity against Escherichia coli TOP10 harbouring pS2 plasmid expressing quinolone resistant QnrS2 gene
[8] = test system: Escherichia coli; assay: Antimicrobial activity against Escherichia coli TOP10 harbouring p0 plasmid expressing pCR-BluntII-TOPO

| Structure (SMILES) | MIC [1] [µg/mL] | MIC [2] [µg/mL] | MIC [3] [µg/mL] | MIC [4] [µg/mL] | MIC [5] [µg/mL] | MIC [6] [µg/mL] | MIC [7] [µg/mL] | MIC [8] [µg/mL] |
| --- | --- | --- | --- | --- | --- | --- | --- | --- |
| O=C(O)c1cn(C2CC2)c2cc(N3CCNCC3)c(F)cc2c1=O [CIPROFLOXACIN] | 0.25 (≈ 0.754 µM) | 0.25 (≈ 0.754 µM) | < 0.01 |  |  |  |  |  |
| COc1c(N2C[C@@H]3CCCN[C@@H]3C2)c(F)cc2c(=O)c(C(=O)O)cn(C3CC3)c12 [MOXIFLOXACIN] | 0.25 (≈ 0.623 µM) | 0.25 (≈ 0.623 µM) | < 0.01 | 0.12 (≈ 0.299 µM) | 0.12 (≈ 0.299 µM) | 0.25 (≈ 0.623 µM) | 0.25 (≈ 0.623 µM) |  |
| CCn1cc(C(=O)O)c(=O)c2ccc(C)nc21 [NALIDIXIC ACID] | 2 (≈ 8.61 µM) | 4 (≈ 17.2 µM) | 1 (≈ 4.31 µM) | 8 (≈ 34.4 µM) | 8 (≈ 34.4 µM) | 8 (≈ 34.4 µM) | 8 (≈ 34.4 µM) | 1 (≈ 4.31 µM) |
| CCn1cc(C(=O)O)c(=O)c2cc(F)c(N3CCNCC3)cc21 [NORFLOXACIN] | 0.25 (≈ 0.783 µM) | 0.5 (≈ 1.57 µM) | 0.03 (≈ 0.0939 µM) | 0.5 (≈ 1.57 µM) | 0.5 (≈ 1.57 µM) | 1 (≈ 3.13 µM) | 1 (≈ 3.13 µM) | 0.03 (≈ 0.0939 µM) |
| CC1COc2c(N3CCN(C)CC3)c(F)cc3c(=O)c(C(=O)O)cn1c23 (configuration not stated) [OFLOXACIN] | 0.25 (≈ 0.692 µM) | 0.5 (≈ 1.38 µM) |  | 0.25 (≈ 0.692 µM) | 0.25 (≈ 0.692 µM) |  |  |  |
| C[C@@H]1CN(c2c(F)c(N)c3c(=O)c(C(=O)O)cn(C4CC4)c3c2F)C[C@H](C)N1 [SPARFLOXACIN] | 0.25 (≈ 0.637 µM) | 0.5 (≈ 1.27 µM) | < 0.01 | 0.12 (≈ 0.306 µM) | 0.12 (≈ 0.306 µM) | 0.25 (≈ 0.637 µM) | 0.25 (≈ 0.637 µM) |  |
